Where two headings read alike, the source gives them in different places.
Legend:
[1] = target: T1, IDO1 protein in IFN-γ stimulated HeLa cells (Homo sapiens, UniProt P14902); assay: IDO1 immunostaining (immunofluorescence); type: cell-based; details: 24 h
T1 construct: endogenous in cells; host or cells: HeLa (DSMZ), IFN-γ stimulated
Protocol: Figure 3 Comparison of IDO1 degradation efficiency for selected compounds. a) Detection of IDO1 levels using immunostaining. IFN‐γ stimulated HeLa cells were treated with the compounds for 24 h. IDO1 protein abundance was detected with IDO1 antibody. Data are mean values ± SD, n = 3. b) IDO1 protein levels in BxPC3 cells upon compounds treatment were detected using immunoblotting. BxPC3 cells were treated with IFN‐γ for 24 h prior to washout, followed by addition of compounds. Representative blot and quantified band intensities are shown (mean values ± SD, n = 3). See Figure S11a S12a for the uncropped blots. c) Key functions of hit compounds that influence degradation efficiency. d) Heatmap for IDO degradation efficiency. IDO1 levels were monitored as described in (c). See Table S1 for mean values and Figure S11b for the uncropped blots. e)–g) Dose dependent degradation of IDO1 protein in BxPC3 cells treated with iDeg‐7–9 and detected as described in (c). Representative data of n = 3 except for iDeg‐9 (n = 4). See Figure S12 S13 for the uncropped blots. h) Quantification of IDO1 protein levels from e‐g (mean values ± SD, n = 3 except for iDeg‐9 (n = 4). i) Tabulated inhibition and degradation ability of iDeg‐6–9. ND: not detected. j) Volcano plot of iDeg‐6‐induced changes on the global proteome. SKOV‐3 cells were treated with 10 µM iDeg‐6 or DMSO for 4 h followed by protein extraction, tryptic digest and LC‐MS/MS analysis (n = 4). Plot generated using UMSAP (T 0 = 0.5, S 0 = 0.5).
IFN-γ-stimulated Hela cells (5 ng/mL IFN-γ) were seeded in 96-well plates and incubated for 24 h. Subsequently, IFN-γ was washed out and cells were treated with compounds for additional 24 h. Cells were then washed once with PBS and fixed with 3.7% paraformaldehyde for 10 min at room temperature. Cells were washed three times with ice-cold PBS. […] Images were analyzed by SpectraMax Paradigm microplate reader (Molecular Devices) to extract IDO1 fluorescence intensity as well as the cell count. IDO1 fluorescence intensity was normalized to cell count. […]

[2] = target: IDO1 protein levels in BxPC3 cells (Homo sapiens, UniProt P14902); assay: IDO1 immunoblotting (degradation); type: cell-based; parameters: endogenous in cells; host or cells: BxPC3 (DSMZ), IFN-γ stimulated; details: for Max. degradation (%): 24 h incubation, mean ± SD; for IDO1 protein level by immunoblotting (in words): IFN-γ 24 h, washout, compounds 24 h
Chain of IDO1 protein levels in BxPC3 cells (P14902 whole entry): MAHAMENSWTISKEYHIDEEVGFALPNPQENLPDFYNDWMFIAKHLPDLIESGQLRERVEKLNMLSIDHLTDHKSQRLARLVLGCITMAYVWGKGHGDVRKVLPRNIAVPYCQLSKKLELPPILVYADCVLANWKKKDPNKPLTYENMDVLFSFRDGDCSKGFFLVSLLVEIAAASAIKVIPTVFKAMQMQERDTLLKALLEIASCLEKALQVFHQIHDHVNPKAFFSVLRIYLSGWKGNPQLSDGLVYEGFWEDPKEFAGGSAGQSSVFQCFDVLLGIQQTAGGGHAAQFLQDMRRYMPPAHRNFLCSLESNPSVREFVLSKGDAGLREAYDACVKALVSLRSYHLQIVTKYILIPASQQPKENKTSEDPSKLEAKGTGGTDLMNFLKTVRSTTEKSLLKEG

[3] = target: T2, recombinant human IDO1 (Homo sapiens, UniProt P14902); assay: IDO1 enzymatic assay in vitro; type: biochemical; details: for IDO1 activity IC50 [µM] (in vitro assay): determined if inhibition at 14 µM higher than 50%
T2 construct: The GST-tag of IDO1 was removed to obtain untagged full-length IDO1l using PreScission protease; GST (N, cleaved yes); made in house; own inference
T2 sequence (P14902 whole entry): as above

[4] = target: T3, heme-bound IDO1 (holo-IDO1) (Homo sapiens, UniProt P14902); assay: UV/Vis detection of heme-bound IDO1 (heme displacement); type: binding; details: 50 µM, 37 °C, 3 h, Soret band 404 nm
T3 construct: The GST-tag of IDO1 was removed to obtain untagged full-length IDO1l using PreScission protease; GST (N, cleaved yes); made in house; own inference
T3 sequence (P14902 whole entry): as above
Protocol: (§1) Incubation at 37 °C for 3 h. Representative data for n = 3. c) Time‐course of heme displacement from IDO1 detected by the absorbance at the Soret peak (404 nm) as a function of time. […] All curves were fit using a one‐site model with N = 1 and defined IDO1 concentration. Left plots show baseline corrected data, while right plots show integrated binding isotherms versus iDegs/IDO1 ratio. IDO1 protein (125 µM) was titrated into the stirred sample cell containing iDegs (25 µM, except for iDeg‐8 at 50 µM). Representative data for n = 3, except for iDeg‐9 (n = 2). g)–i) In vivo activity of iDeg‐6. NSG immunodeficient mice were injected with SKOV‐3 cells. Mice were treated with 18 intraperitoneal injections of iDeg‐6 (30 mg kg^−1) or vehicle. The pharmacological treatment was twice daily. Tumor volume was determined weekly by digital caliper. g) SKOV‐3 tumor growth curves in iDeg‐6‐treated mice (n = 12, green lines) or vehicle‐treated mice (n = 13, gray lines). Statistical analysis was performed by two‐way ANOVA: ****p < 0.001. h) Body weight changes during treatment window (mean values ± range). i) Survival data are shown by Kaplan‐Meier survival analysis. Mantel–Haenszel statistical analysis: p < 0.0001).
Representative data of n=3 biological replicates. c, IDO1 was incubated with compounds (50 µM) or DMSO (control). UV/VIS spectra were acquired at five time points to monitor heme loss over time. Data are representative of two replicates.
The test compounds or DMSO (vehicle control) were incubated with recombinant full-length human IDO1 (rhIDO1; 10 µM) in 50 mM potassium phosphate buffer (pH 6.5) for 3 h at 37 °C. Following incubation, samples were centrifuged at 5,000 × g for 10 minutes. UV/Vis absorption spectra were then recorded from 250 nm to 650 nm in 1 nm increments using UV-transparent microplates (UV-STAR®, Greiner Bio-One, Austria) on a Spark® multimode microplate reader (Tecan, Austria). Absorbance values were analyzed at 404 nm (A404), and were plotted using GraphPad Prism version 9.0 (GraphPad Software, USA).

[5] = tested on: Kyn levels in BxPC3 cells (kynurenine generated by IDO1); assay: Cellular Kyn assay (automated Kyn screening assay); type: cell-based; details: IFN-γ, L-Trp and compounds 48 h, mean ± SD, read-out: IC50 (Kyn assay), reduction of kynurenine levels
[6] = target: T4, recombinant full-length human IDO1 (Homo sapiens, UniProt P14902); assay: Thermal shift assay (nanoDSF); type: binding; details: 50 µM, 3 h at 37 °C
T4 construct: The GST-tag of IDO1 was removed to obtain untagged full-length IDO1l using PreScission protease; GST (N, cleaved yes); made in house; own inference
T4 sequence (P14902 whole entry): as above
Protocol: as §1, with “0.0001). […]” for “0.0001).”
The test compounds or DMSO (vehicle control) were incubated with recombinant full-length human IDO1 (rhIDO1; 10 µM) in 50 mM potassium phosphate buffer (pH 6.5) for 3 h at 37 °C. Following incubation, samples were centrifuged at 5,000 × g for 10 minutes, then the protein-compound solutions were loaded into capillaries, and thermal unfolding was assessed using the Prometheus Panta system (NanoTemper® Technologies, Germany). Fluorescence intensities at 330 nm and 350 nm were recorded at temperature increments of 0.115 °C from 20 °C to 90 °C. Melting temperatures (Tm) were automatically calculated using Prometheus NT.48 analysis software. The resulting thermal denaturation curves, with Tm defined as the temperature at the maximum derivative of the unfolding transition, were visualized and analysed using GraphPad Prism version 9.0 (GraphPad Software, USA).

[7] = at 14 µM, pre-incubation 37 °C 45 min, mean ± SD

T1 sequence (P14902 whole entry): as above

| SMILES | IDO1 staining fluorescence intensity (in words) [1] | Max. degradation (%) ([2]; 10 nM) | Max. degradation (%) ([2]; 100 nM) | Degradation Efficiency (%) ([2]; 100 nM, BxPC3 cells, heatmap Fig. 3d) | IDO1 protein level by immunoblotting (in words) ([2]; BxPC3 cells) | inhibition at 14 µM [3, 7] [%] | IDO1 activity IC50 [µM] (in vitro assay) ([3]; pre-incubation 37 °C 45 min) | heme displacement from holo-IDO1 (in words) [4] | IC50 ([5]; Homo sapiens, BXPC-3, 48 h) [nM] | shift in IDO1 melting temperature ΔTm / binding in TSA (in words) [6] | IDO1 activity Inhibition (%) [3, 7] | in vitro IDO1 inhibition (in words) ([3]; up to 14 µM, incubated with IDO1 for 45 min) | IC50 [5] [nM] |
| --- | --- | --- | --- | --- | --- | --- | --- | --- | --- | --- | --- | --- | --- |
| CC(C)(C)c1ccc(S(=O)(=O)N2C[C@H]3C[C@H]4C[C@H](C4(C)C)[C@@]3(COC(=O)Nc3ccc(I)cc3)C2)cc1 [14 (iDeg-2)] | reduced the fluorescence intensity of the IDO1 staining | 20 ± 9 (3) % | 37 ± 14 (3) % | 37 | modulate IDO1 abundance | < 25 | – (Inactive: >75% Kyn level observed up to a concentration of 14 µM and no IC50 value obtained) | displaced heme to a similar extent | 120 ± 20 | identical binding in the TSA assay | – | – | – |
| CC(C)(C)c1ccc(S(=O)(=O)N2CC[C@@]3(C2)[C@@H]2C[C@H](C[C@H]3OC(=O)Nc3ccc(I)cc3)C2(C)C)cc1 [compound 22, (1R,2S,3R,5R)-1'-((4-(tert-butyl)phenyl)sulfonyl)-6,6-dimethylspiro[bicyclo[3.1.1]heptane-2,3'-pyrrolidin]-3-yl (4-iodophenyl)carbamate] | did not induce IDO1 protein degradation | – | – | – | did not reduce the IDO1 protein level | – | – (Inactive: >75% Kyn level observed up to a concentration of 14 µM and no IC50 value obtained) | displaced heme to a similar extent | – | identical binding in the TSA assay | ns (not significant) | no activity | 490 ± 60 |

Source: paper PMC12811658, “Design, Synthesis, and Structural Evolution of Pseudo‐Natural Product IDO1 Inhibitors and Degraders” (Angewandte Chemie (International Ed. in English), 2025)
